Results reported in patent US6716978B2, “Therapeutically active compounds based on indazole bioisostere replacement of catechol in PDE4 inhibitors” (Pfizer Inc, priority 1997, dated 2004).

| SMILES | melting point [°C] |
| --- | --- |
| CCc1nn(-c2ccc(F)cc2)c2cc(Br)ccc12 [Example 20, 6-Bromo-3-ethyl-1-(4-fluorophenyl)-1H-indazole] | 72 to 73 |
| CCc1nn(-c2ccc(F)cc2)c2cc(C3=CCC(C(=O)O)CC3)ccc12 (centres unmarked) [Example 24, 4-(3-ethyl-1-(4-fluorophenyl)-1H-indazol-6-yl)-cyclohex-3-ene-carboxylic acid] | 214 to 216 |
